According to PubChem BioAssay (NCI):
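Five concentrations, 48 hours, 96-well plates. Here, GI50 denotes the concentration required for 50% inhibition of growth. TGI denotes the concentration required for complete inhibition of growth.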 *1 amine or outer side, *2 acyl side, *3 side chain or, on linkers, in order; H or OH if unused. Where a SMILES comes first, the peptide text is derived from it. Bridges are numbered along the chain shown (N, C = ends). [ ]: non-standard residue; d: D form. The star is where a group is joined. ξ: configuration not given here. ξOrn(4,5-diOH) = O=C(C(CC(O)C(O)N[*:3])N[*:1])[*:2]; ξhTyr(βξ-OH,γξ-OH) = NC(C(=O)O)C(O)C(O)c1ccc(O)cc1; ξPro(3ξ-OH,4ξ-Me) = CC1CNC(C(=O)O)C1O; X22 = CCCCC/C=C/C/C=C\CCCCCCCC(=O)*; Hyp = O=C(O)[CH]1C[CH](O)CN1

Columns and labels:
Assay in all cases: NCI anticancer screen, dose series, 48 h
SF-268 CNS = system: SF-268 CNS
RPMI-8226 leukemia = system: RPMI-8226 leukemia
M14 melanoma = system: M14 melanoma
U251 CNS = system: U251 CNS
OVCAR-4 ovarian = system: OVCAR-4 ovarian
NCI-H23 lung = system: NCI-H23 lung
IGROV1 ovarian = system: IGROV1 ovarian
A549 NSCLC = system: A549 NSCLC
UACC-257 melanoma = system: UACC-257 melanoma
CAKI-1 renal = system: CAKI-1 renal
K-562 leukemia = system: K-562 leukemia
NCI-H226 lung = system: NCI-H226 lung
MDA-MB-435 = system: MDA-MB-435
SK-OV-3 ovarian = system: SK-OV-3 ovarian
OVCAR-5 ovarian = system: OVCAR-5 ovarian
SF-295 CNS = system: SF-295 CNS
LOX IMVI melanoma = system: LOX IMVI melanoma
HCC-2998 colon = system: HCC-2998 colon
HT29 colon = system: HT29 colon
TK-10 renal = system: TK-10 renal
UO-31 renal = system: UO-31 renal
SN12C renal = system: SN12C renal
HL-60(TB) leukemia = system: HL-60(TB) leukemia
MDA-MB-231 breast = system: MDA-MB-231 breast
786-0 renal = system: 786-0 renal
UACC-62 melanoma = system: UACC-62 melanoma
SK-MEL-2 melanoma = system: SK-MEL-2 melanoma
NCI-H522 lung = system: NCI-H522 lung
HCT-15 colon = system: HCT-15 colon
DU-145 prostate = system: DU-145 prostate
PC-3 prostate = system: PC-3 prostate
RXF 393 renal = system: RXF 393 renal
MCF7 breast = system: MCF7 breast
HOP-62 NSCLC = system: HOP-62 NSCLC
OVCAR-8 ovarian = system: OVCAR-8 ovarian
SF-539 CNS = system: SF-539 CNS
NCI-H460 lung = system: NCI-H460 lung
SNB-19 CNS = system: SNB-19 CNS
EKVX NSCLC = system: EKVX NSCLC
SK-MEL-5 melanoma = system: SK-MEL-5 melanoma
COLO 205 colon = system: COLO 205 colon
NCI/ADR-RES ovarian = system: NCI/ADR-RES ovarian
SNB-75 CNS = system: SNB-75 CNS
SW-620 colon = system: SW-620 colon
OVCAR-3 ovarian = system: OVCAR-3 ovarian
SR leukemia = system: SR leukemia
MALME-3M melanoma = system: MALME-3M melanoma
ACHN renal = system: ACHN renal
SK-MEL-28 melanoma = system: SK-MEL-28 melanoma
KM12 colon = system: KM12 colon
BT-549 breast = system: BT-549 breast
MOLT-4 leukemia = system: MOLT-4 leukemia
HOP-92 NSCLC = system: HOP-92 NSCLC
T-47D breast = system: T-47D breast
HCT-116 colon = system: HCT-116 colon
CCRF-CEM leukemia = system: CCRF-CEM leukemia
A498 renal = system: A498 renal

For `CCCCCCCCCCN=C(N)c1ccc(N2CCN(c3ccc(C(N)=NCCCCCCCCCC)cc3)CC2)cc1`, the GI50 (SF-268 CNS) was 2.27 µM, the TGI (SF-268 CNS) was 11.1 µM and the GI50 (RPMI-8226 leukemia) was 1.96 µM. For the same compound, the TGI (RPMI-8226 leukemia) was greater than 50 µM, the GI50 (M14 melanoma) was 18 µM and the TGI (M14 melanoma) was greater than 50 µM. The GI50 (U251 CNS) was 2.44 µM, the TGI (U251 CNS) was greater than 50 µM and the GI50 (OVCAR-4 ovarian) was 6.5 µM. The TGI (OVCAR-4 ovarian) was greater than 50 µM, the GI50 (NCI-H23 lung) was 3.23 µM and the TGI (NCI-H23 lung) was greater than 50 µM. It also gave a GI50 (IGROV1 ovarian) of 2.83 µM, a TGI (IGROV1 ovarian) greater than 50 µM and a GI50 (A549 NSCLC) of 3.32 µM. For the same compound, the TGI (A549 NSCLC) was greater than 50 µM, the GI50 (UACC-257 melanoma) was 9.81 µM and the TGI (UACC-257 melanoma) was 26.5 µM. The GI50 (CAKI-1 renal) was 17.9 µM, the TGI (CAKI-1 renal) was greater than 50 µM and the GI50 (K-562 leukemia) was 1.95 µM. The TGI (K-562 leukemia) was greater than 50 µM, the GI50 (NCI-H226 lung) was 7.72 µM and the TGI (NCI-H226 lung) was greater than 50 µM. The GI50 (MDA-MB-435) was 2.83 µM, the TGI (MDA-MB-435) was 12.6 µM and the GI50 (SK-OV-3 ovarian) was 4.08 µM. The TGI (SK-OV-3 ovarian) was greater than 50 µM, the GI50 (OVCAR-5 ovarian) was 5.25 µM and the TGI (OVCAR-5 ovarian) was greater than 50 µM. The GI50 (SF-295 CNS) was 1.81 µM, the TGI (SF-295 CNS) was 6.12 µM and the GI50 (LOX IMVI melanoma) was 3.5 µM. The TGI (LOX IMVI melanoma) was greater than 50 µM, the GI50 (HCC-2998 colon) was 3.51 µM and the TGI (HCC-2998 colon) was greater than 50 µM. The GI50 (HT29 colon) was 3.37 µM, the TGI (HT29 colon) was greater than 50 µM and the GI50 (TK-10 renal) was 8.29 µM. For the same compound, the TGI (TK-10 renal) was greater than 50 µM, the GI50 (UO-31 renal) was 22.6 µM and the TGI (UO-31 renal) was greater than 50 µM. The GI50 (SN12C renal) was 2.19 µM, the TGI (SN12C renal) was 15.2 µM and the GI50 (HL-60(TB) leukemia) was 2.17 µM. It also gave a TGI (HL-60(TB) leukemia) greater than 50 µM, a GI50 (MDA-MB-231 breast) of 2.95 µM and a TGI (MDA-MB-231 breast) of 17.9 µM. For the same compound, the GI50 (786-0 renal) was 16 µM, the TGI (786-0 renal) was greater than 50 µM and the GI50 (UACC-62 melanoma) was 6.67 µM. For the same compound, the TGI (UACC-62 melanoma) was 38.1 µM, the GI50 (SK-MEL-2 melanoma) was 7.74 µM and the TGI (SK-MEL-2 melanoma) was greater than 50 µM. It also gave a GI50 (NCI-H522 lung) of 3.75 µM, a TGI (NCI-H522 lung) greater than 50 µM and a GI50 (HCT-15 colon) of 14.1 µM. It also gave a TGI (HCT-15 colon) greater than 50 µM, a GI50 (DU-145 prostate) of 3.3 µM and a TGI (DU-145 prostate) of 26.1 µM. The GI50 (PC-3 prostate) was 2.94 µM, the TGI (PC-3 prostate) was 12.1 µM and the GI50 (RXF 393 renal) was 6.82 µM. For the same compound, the TGI (RXF 393 renal) was 36.1 µM, the GI50 (MCF7 breast) was 1.55 µM and the TGI (MCF7 breast) was greater than 50 µM. The GI50 (HOP-62 NSCLC) was 11.3 µM, the TGI (HOP-62 NSCLC) was 29 µM and the GI50 (OVCAR-8 ovarian) was 2.62 µM. For the same compound, the TGI (OVCAR-8 ovarian) was greater than 50 µM, the GI50 (SF-539 CNS) was 1.72 µM and the TGI (SF-539 CNS) was 6.76 µM. The GI50 (NCI-H460 lung) was 1.97 µM, the TGI (NCI-H460 lung) was greater than 50 µM and the GI50 (SNB-19 CNS) was 3.02 µM. It also gave a TGI (SNB-19 CNS) of 19.1 µM, a GI50 (EKVX NSCLC) of 4.44 µM and a TGI (EKVX NSCLC) of 21.1 µM. For the same compound, the GI50 (SK-MEL-5 melanoma) was 2.19 µM, the TGI (SK-MEL-5 melanoma) was greater than 50 µM and the GI50 (COLO 205 colon) was 3.93 µM. The TGI (COLO 205 colon) was 15.7 µM, the GI50 (NCI/ADR-RES ovarian) was greater than 50 µM and the TGI (NCI/ADR-RES ovarian) was greater than 50 µM. It also gave a GI50 (SNB-75 CNS) of 2.34 µM, a TGI (SNB-75 CNS) greater than 50 µM and a GI50 (SW-620 colon) of 2.65 µM. It also gave a TGI (SW-620 colon) greater than 50 µM, a GI50 (OVCAR-3 ovarian) of 2.23 µM and a TGI (OVCAR-3 ovarian) of 8.57 µM. For the same compound, the GI50 (SR leukemia) was greater than 50 µM, the TGI (SR leukemia) was greater than 50 µM and the GI50 (MALME-3M melanoma) was 6.25 µM. For the same compound, the TGI (MALME-3M melanoma) was 17 µM, the GI50 (ACHN renal) was 15.7 µM and the TGI (ACHN renal) was greater than 50 µM. It also gave a GI50 (SK-MEL-28 melanoma) of 4.76 µM, a TGI (SK-MEL-28 melanoma) of 36 µM and a GI50 (KM12 colon) of 2.9 µM. It also gave a TGI (KM12 colon) of 17.8 µM, a GI50 (BT-549 breast) of 1.69 µM and a TGI (BT-549 breast) of 5.04 µM. It also gave a GI50 (MOLT-4 leukemia) greater than 50 µM, a TGI (MOLT-4 leukemia) greater than 50 µM and a GI50 (HOP-92 NSCLC) of 5.88 µM. The TGI (HOP-92 NSCLC) was 28.9 µM, the GI50 (T-47D breast) was 5.91 µM and the TGI (T-47D breast) was 18.8 µM.

`O=C1Nc2ccc(Cl)cc2/C1=N/c1nc(-c2ccc(Cl)cc2)cs1` was tested, and the GI50 (SF-268 CNS) was 1.29 µM, the TGI (SF-268 CNS) was 4.41 µM and the GI50 (M14 melanoma) was 1.4 µM. For the same compound, the TGI (M14 melanoma) was 2.82 µM, the GI50 (U251 CNS) was 1.7 µM and the TGI (U251 CNS) was 4.65 µM. It also gave a GI50 (HCT-116 colon) of 1.3 µM, a TGI (HCT-116 colon) of 2.71 µM and a GI50 (OVCAR-4 ovarian) of 1.39 µM. It also gave a TGI (OVCAR-4 ovarian) greater than 100 µM, a GI50 (K-562 leukemia) of 1.6 µM and a TGI (K-562 leukemia) greater than 100 µM. The GI50 (SK-OV-3 ovarian) was 1.5 µM, the TGI (SK-OV-3 ovarian) was 4.54 µM and the GI50 (OVCAR-5 ovarian) was 1.91 µM. It also gave a TGI (OVCAR-5 ovarian) of 4.43 µM, a GI50 (HT29 colon) of 1.87 µM and a TGI (HT29 colon) of 5.34 µM. The GI50 (TK-10 renal) was 2.88 µM, the TGI (TK-10 renal) was 6.13 µM and the GI50 (786-0 renal) was 1.46 µM. The TGI (786-0 renal) was 3.7 µM, the GI50 (UACC-62 melanoma) was 1.54 µM and the TGI (UACC-62 melanoma) was 4.1 µM. For the same compound, the GI50 (SK-MEL-2 melanoma) was 1.93 µM, the TGI (SK-MEL-2 melanoma) was 4.85 µM and the GI50 (DU-145 prostate) was 1.42 µM. For the same compound, the TGI (DU-145 prostate) was 2.79 µM, the GI50 (COLO 205 colon) was 1.69 µM and the TGI (COLO 205 colon) was 4.18 µM. The GI50 (SW-620 colon) was 1.67 µM, the TGI (SW-620 colon) was 4.29 µM and the GI50 (OVCAR-3 ovarian) was 1.3 µM. The TGI (OVCAR-3 ovarian) was 4.56 µM, the GI50 (SR leukemia) was 2.74 µM and the TGI (SR leukemia) was greater than 100 µM. For the same compound, the GI50 (KM12 colon) was 1.37 µM, the TGI (KM12 colon) was 4.55 µM and the GI50 (CCRF-CEM leukemia) was 2.28 µM. It also gave a TGI (CCRF-CEM leukemia) greater than 100 µM, a GI50 (A498 renal) of 1.8 µM and a TGI (A498 renal) of 4.98 µM. It also gave a GI50 (MOLT-4 leukemia) of 1.61 µM, a TGI (MOLT-4 leukemia) greater than 100 µM and a GI50 (T-47D breast) of 0.938 µM. For the same compound, the TGI (T-47D breast) was 5.8 µM.

`CCCCC/C=C/C/C=C\CCCCCCCC(=O)NC1CC(O)C(O)NC(=O)C2C(O)C(C)CN2C(=O)C(C(C)O)NC(=O)C(C(O)C(O)c2ccc(O)cc2)NC(=O)C2CC(O)CN2C(=O)C(C(C)O)NC1=O` (stereo not drawn) (X22-[ξOrn(4,5-diOH)]T[Hyp][ξhTyr(βξ-OH,γξ-OH)]T[ξPro(3ξ-OH,4ξ-Me)]; lactam 1-C; configuration not given here) was tested, and the TGI (NCI-H23 lung) was greater than 100 µM, the TGI (UACC-257 melanoma) was greater than 100 µM and the TGI (BT-549 breast) was greater than 100 µM. For the same compound, the TGI (HOP-92 NSCLC) was greater than 100 µM.
